Measured values from patent US20240182460A1, “ALLOSTERIC CHROMENONE INHIBITORS OF PHOSPHOINOSITIDE 3-KINASE (PI3K) FOR THE TREATMENT OF DISEASE” (PETRA PHARMA CORPORATION, priority 2022, published 2024).

Biological target: T1, PI3Kα E545K (Homo sapiens, UniProt P42336, E545K)
Test: PI3Kα E545K mutant in vitro cell based assay, MDA-MB-361 cells
Parameters: MDA-MB-361 (ATCC-HTB-27) cell line (PI3Kα E545K); host or cells: MDA-MB-361
Settings: MDA-MB-361 cell line, 0% FBS, no insulin, 3 hours treatment
Method in brief: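 Compound exposure lasted 3 hours, in duplicate 10-point 1:3 dilutions at 0.3% DMSO final, on overnight-attached MDA-MB-361 cells carrying PI3Kα E545K in insulin-free, 0% FBS MEM. Lysates read by SureFire AlphaLISA. Relative IC50 from 4-parameter logistic fit versus DMSO and 1 μM GDC-0032 controls.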

T1 sequence (P42336 whole entry E545K): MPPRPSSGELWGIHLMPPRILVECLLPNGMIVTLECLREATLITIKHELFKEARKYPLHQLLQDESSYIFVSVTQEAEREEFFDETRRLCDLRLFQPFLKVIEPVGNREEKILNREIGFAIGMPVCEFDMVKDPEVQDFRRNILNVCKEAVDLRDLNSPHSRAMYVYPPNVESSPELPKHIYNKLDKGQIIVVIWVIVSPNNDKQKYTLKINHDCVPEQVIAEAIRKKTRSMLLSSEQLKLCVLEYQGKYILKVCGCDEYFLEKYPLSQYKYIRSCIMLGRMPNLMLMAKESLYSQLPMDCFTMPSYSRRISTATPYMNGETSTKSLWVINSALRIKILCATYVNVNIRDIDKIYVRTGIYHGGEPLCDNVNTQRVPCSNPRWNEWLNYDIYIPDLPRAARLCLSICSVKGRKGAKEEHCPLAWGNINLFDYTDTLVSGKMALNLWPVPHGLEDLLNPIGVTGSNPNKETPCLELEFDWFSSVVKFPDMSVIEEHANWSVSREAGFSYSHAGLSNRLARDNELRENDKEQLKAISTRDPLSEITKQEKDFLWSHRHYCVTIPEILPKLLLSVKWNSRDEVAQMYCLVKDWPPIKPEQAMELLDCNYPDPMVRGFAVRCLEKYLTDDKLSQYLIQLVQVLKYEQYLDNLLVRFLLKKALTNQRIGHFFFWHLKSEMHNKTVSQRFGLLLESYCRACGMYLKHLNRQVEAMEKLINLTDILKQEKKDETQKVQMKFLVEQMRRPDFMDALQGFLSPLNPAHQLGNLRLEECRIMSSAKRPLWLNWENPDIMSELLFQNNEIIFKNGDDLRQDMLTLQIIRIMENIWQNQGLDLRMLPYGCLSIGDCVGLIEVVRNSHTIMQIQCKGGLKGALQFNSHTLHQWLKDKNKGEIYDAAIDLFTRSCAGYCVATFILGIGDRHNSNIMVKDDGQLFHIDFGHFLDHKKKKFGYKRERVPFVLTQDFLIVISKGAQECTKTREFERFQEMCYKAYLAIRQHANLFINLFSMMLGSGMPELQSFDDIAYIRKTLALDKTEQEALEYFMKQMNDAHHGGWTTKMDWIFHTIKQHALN
T1 sequence (P27986 whole entry partner): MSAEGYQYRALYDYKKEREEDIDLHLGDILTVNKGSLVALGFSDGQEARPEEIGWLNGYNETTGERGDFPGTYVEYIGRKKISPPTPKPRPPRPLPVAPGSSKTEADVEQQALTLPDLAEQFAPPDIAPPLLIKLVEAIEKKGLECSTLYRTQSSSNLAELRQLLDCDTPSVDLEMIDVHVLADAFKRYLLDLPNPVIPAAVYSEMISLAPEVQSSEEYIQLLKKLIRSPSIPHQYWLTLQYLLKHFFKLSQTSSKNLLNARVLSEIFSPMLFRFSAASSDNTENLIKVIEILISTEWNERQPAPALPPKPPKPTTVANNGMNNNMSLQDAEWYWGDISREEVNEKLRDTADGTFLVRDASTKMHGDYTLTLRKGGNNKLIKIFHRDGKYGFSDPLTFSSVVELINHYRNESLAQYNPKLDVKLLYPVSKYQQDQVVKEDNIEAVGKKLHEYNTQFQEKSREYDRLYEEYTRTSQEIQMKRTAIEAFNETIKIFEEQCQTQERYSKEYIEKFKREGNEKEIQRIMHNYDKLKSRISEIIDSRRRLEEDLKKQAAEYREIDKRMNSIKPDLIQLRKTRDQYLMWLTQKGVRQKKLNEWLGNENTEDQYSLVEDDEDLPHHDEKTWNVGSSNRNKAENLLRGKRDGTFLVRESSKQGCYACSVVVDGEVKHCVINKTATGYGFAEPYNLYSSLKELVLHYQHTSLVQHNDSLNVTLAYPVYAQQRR

| Compound | IC50 [nM] |
| --- | --- |
| Cc1cc([C@@H](C)Oc2ccc(Cl)nc2C(N)=O)c2oc(-c3ccc4nc(CCO)sc4c3)c(C)c(=O)c2c1 [Example 132C, 6-Chloro-3-[(1R)-1-[2-[2-(2-hydroxyethyl)-1,3-benzothiazol-6-yl]-3,6-dimethyl-4-oxo-chromen-8-yl]ethoxy]pyridine-2-carboxamide] | < 500 |
| Cc1cc([C@@H](C)Oc2ccc(Cl)cc2S(N)(=O)=O)c2oc(-c3ccccc3)c(C)c(=O)c2c1 [Example 98C, 5-Chloro-2-[(1R)-1-(3,6-dimethyl-4-oxo-2-phenyl-chromen-8-yl)ethoxy]benzenesulfonamide] | < 500 |

Now from value to molecule:

| IC50 [nM] | Compound |
| --- | --- |
| < 500 | Cc1cc([C@@H](C)Oc2cccnc2C(=O)NOCC2CC2)c2oc(-c3ccc4nn(C)cc4c3)c(C)c(=O)c2c1 [Example 25A, N-(Cyclopropylmethoxy)-3-[(1R)-1-[3,6-dimethyl-2-(2-methylindazol-5-yl)-4-oxo-chromen-8-yl]ethoxy]pyridine-2-carboxamide] |
| < 500 | Cc1cc([C@@H](C)Oc2ccc(Cl)nc2C(N)=O)c2oc(-c3ccc4nn(CCO)cc4c3)c(C)c(=O)c2c1 [Example 129C, 6-Chloro-3-[(1R)-1-[2-[2-(2-hydroxyethyl)indazol-5-yl]-3,6-dimethyl-4-oxo-chromen-8-yl]ethoxy]pyridine-2-carboxamide] |

Biological target: T1, PI3Kα E545K
Test: PI3Kα E545K mutant in vitro cell based assay, MCF-7 cells
Settings: MCF-7 cell line, 0% FBS, 3 hours treatment
Source text: PI3K-Alpha Kinase (PI3Kα) Activity: Wild-Type PI3Kα, H1047R Mutant PI3Kα, and E545K Mutant PI3Kα In Vitro Cell Based Assays and Determination of IC50 Values for Inhibitors
The MDA-MB-453 (ATCC-HTB-131) cell line (PI3Kα H1047R) and MCF-7 (ATCC-HTB-22) cell line (PI3Kα E545K), MDA-MB-361 (ATCC-HTB-27) cell line (PI3Kα E545K), and SKBR3 (ATCC-HTB-30) cell line (wild type PI3Kα) were obtained from the American Type Culture Collection (Manassas, VA). MDA-MB-453 cells were maintained in Dulbecco's Modified Eagle Media (DMEM, Gibco 12430) supplemented with 10% Fetal Bovine Serum, heat inactivated (FBS HI, Gibco 10082), 1× non-essential amino acids (NEAA, Gibco 11140), 1 mM sodium pyruvate (Gibco 11360) and 1× Anti-Anti (Gibco 15240). MCF-7 cells were maintained in Minimum Essential Media (MEM) (Gibco 11095) supplemented with 10% Fetal Bovine Serum, heat inactivated (FBS HI, Gibco 10082), 1× non-essential amino acids (NEAA, Gibco 11140), 1 mM sodium pyruvate (Gibco 11360), 1× Anti-Anti (Gibco 15240) and 10 μg/mL human insulin (Sigma I 9278). MDA-MB-361 cells were maintained in Dulbecco's Modified Eagle Media (DMEM, Gibco 12430) supplemented with 20% Fetal Bovine Serum, heat inactivated (FBS HI, Gibco 10082), 1× non-essential amino acids (NEAA, Gibco 11140), 1 mM sodium pyruvate (Gibco 11360) and 1× Anti-Anti (Gibco 15240). SKBR3 cells were maintained in McCoy's 5A (Gibco 16600) supplemented with 10% Fetal Bovine Serum, heat inactivated (FBS HI, Gibco 10082), and 1× Anti-Anti (Gibco 15240). Cultures were maintained in a humidified incubator at 37° C. under 5% CO2/95% air.
For compound testing in 0% FBS, MDA-MB-453, MCF-7 and SKBR3 cells were seeded at a density of 1.5×10^4, 1.0×10^4, and 1.0×10^4 cells, respectively, per well in white 384-well plates in 20 μl of Minimum Essential Media (MEM) assay media with 1×NEAA, 1 mM sodium pyruvate, and 1 μg/mL human insulin (Sigma 19278) (Assay Medium); while MDA-MB-361 cells were seeded at a density of 1.5×10^4 per well in white 384-well plates in 20 μl Assay Medium without insulin. After plating, cells were allowed to attach overnight. Compounds dissolved in 10 mM stock solutions in DMSO were serially diluted 1:3 in DMSO to generate a 10-point dilution series and plated using an acoustic liquid handler system (Echo 550 Series Liquid Handler, Labcyte). A 5× intermediate compound dilution plate in MEM with 1×NEAA and 1 mM sodium pyruvate (150 μM starting compound concentration in 1.5% DMSO) was then prepared. Five μl of the intermediate serially diluted compounds were added to the cell plate to final concentrations ranging from […] in 0.3% DMSO. 0.3% DMSO alone was used to establish the maximum (MAX) signal and GDC-0032 at a final concentration of 1 μM was used as a reference compound for the minimum (MIN) signal. After 3 hours treatment, the medium was removed, and the cells were lysed in 10 μL of 1× SureFire Lysis buffer with shaking for 10 minutes at room temperature. The Acceptor Mix (Reaction Buffer 1+Reaction Buffer 2+Activation Buffer+SureFire Ultra Acceptor Beads) was prepared by diluting Activation buffer 25-fold in combined Reaction Buffer 1 and Reaction Buffer 2.
The Acceptor beads were diluted 50-fold in the combined Reaction Buffers. Five μL of Acceptor Mix was added to each well, the plate was sealed and covered with foil and incubated for 1 hour at room temperature. The Donor Mix (dilution buffer+SureFire Ultra Donor Beads) was prepared by diluting Donor Beads 50-fold in dilution buffer. Five μL of the Donor Mix was added to each well and the plate sealed and covered with foil and incubated for 1-2 hours at room temperature in the dark. The plates were read on a Neo2 plate reader instrument from Biotek using standard AlphaLisa settings.
Compounds were tested in duplicate and the % inhibition at each compound concentration was used to generate two dose response curves. One IC50 was generated using average % inhibition at each compound concentration. […]

| Compound | IC50 [nM] |
| --- | --- |
| Cc1cc([C@@H](C)Oc2ccc(Cl)nc2C(N)=O)c2oc(-c3ccc4nc(CCO)sc4c3)c(C)c(=O)c2c1 [Example 132C, 6-Chloro-3-[(1R)-1-[2-[2-(2-hydroxyethyl)-1,3-benzothiazol-6-yl]-3,6-dimethyl-4-oxo-chromen-8-yl]ethoxy]pyridine-2-carboxamide] | < 500 |
| CONS(=O)(=O)c1nc(F)ccc1O[C@H](C)c1cc(C)cc2c(=O)c(C)c(-c3cnn(CC(C)(C)O)c3)oc12 [Example 136C, 6-Fluoro-3-[(1R)-1-[2-[1-(2-hydroxy-2-methyl-propyl)pyrazol-4-yl]-3,6-dimethyl-4-oxo-chromen-8-yl]ethoxy]-N-methoxy-pyridine-2-sulfonamide] | < 500 |
| Cc1cc([C@@H](C)Oc2ccc(Cl)cc2S(N)(=O)=O)c2oc(-c3ccccc3)c(C)c(=O)c2c1 [Example 98C, 5-Chloro-2-[(1R)-1-(3,6-dimethyl-4-oxo-2-phenyl-chromen-8-yl)ethoxy]benzenesulfonamide] | < 500 |
| Cc1cc([C@@H](C)Oc2ccc(Cl)nc2C(N)=O)c2oc(-c3cnc4scnc4c3)c(C)c(=O)c2c1 [Example 126A, 6-Chloro-3-[(1R)-1-(3,6-dimethyl-4-oxo-2-thiazolo[5,4-b]pyridin-6-yl-chromen-8-yl)ethoxy]pyridine-2-carboxamide] | < 500 |
| Cc1cc([C@@H](C)Oc2ccc(Cl)nc2C(N)=O)c2oc(-c3ccc4nsnc4c3)c(C)c(=O)c2c1 [Example 140A, 3-[(1R)-1-[2-(2,1,3-Benzothiadiazol-5-yl)-3,6-dimethyl-4-oxo-chromen-8-yl]ethoxy]-6-chloro-pyridine-2-carboxamide] | < 500 |
| Cc1cc([C@@H](C)Oc2ccc(Cl)nc2C(N)=O)c2oc(-c3ccc4c(c3)OCCO4)c(C)c(=O)c2c1 [Example 65A, 6-Chloro-3-[(1R)-1-[2-(2,3-dihydro-1,4-benzodioxin-6-yl)-3,6-dimethyl-4-oxo-chromen-8-yl]ethoxy]pyridine-2-carboxamide] | < 500 |
| Cc1cc([C@@H](C)Oc2ccc(Cl)nc2S(N)(=O)=O)c2oc(-c3ccc4nc(C)cn4c3)c(C)c(=O)c2c1 [Example 120C, 6-Chloro-3-[(1R)-1-[3,6-dimethyl-2-(2-methylimidazo[1,2-a]pyridin-6-yl)-4-oxo-chromen-8-yl]ethoxy]pyridine-2-sulfonamide] | < 500 |
| Cc1cc([C@@H](C)Oc2ccc(Cl)nc2C(N)=O)c2oc(-c3ccc4c(c3)ncn4C)c(C)c(=O)c2c1 [Example 69A, 6-Chloro-3-[(1R)-1-[3,6-dimethyl-2-(1-methylbenzimidazol-5-yl)-4-oxo-chromen-8-yl]ethoxy]pyridine-2-carboxamide] | < 500 |
| Cc1cc([C@@H](C)Oc2ccc(Cl)nc2C(N)=O)c2oc(-c3ccccn3)c(C)c(=O)c2c1 [Example 19A, 6-Chloro-3-[(1R)-1-[3,6-dimethyl-4-oxo-2-(2-pyridyl)chromen-8-yl]ethoxy]pyridine-2-carboxamide] | < 500 |
| Cc1cc([C@@H](C)Oc2ccc(Cl)nc2C(N)=O)c2oc(-c3ccc4c(c3)CN(C)C4=O)c(C)c(=O)c2c1 [Example 14B, 6-Chloro-3-[(1R)-1-[3,6-dimethyl-2-(2-methyl-1-oxo-isoindolin-5-yl)-4-oxo-chromen-8-yl]ethoxy]pyridine-2-carboxamide] | < 500 |

Second part, the molecule after the results:

| IC50 [nM] | Compound |
| --- | --- |
| < 500 | Cc1cc([C@@H](C)Oc2ccc(Cl)nc2C(N)=O)c2oc(-c3ccc4c(c3)CCNC4=O)c(C)c(=O)c2c1 [Example 116A, 6-Chloro-3-[(1R)-1-[3,6-dimethyl-4-oxo-2-(1-oxo-3,4-dihydro-2H-isoquinolin-6-yl)chromen-8-yl]ethoxy]pyridine-2-carboxamide] |
| < 500 | Cc1cc([C@@H](C)Oc2cccnc2C(=O)NOCC2CC2)c2oc(-c3ccc4nn(C)cc4c3)c(C)c(=O)c2c1 [Example 25A, N-(Cyclopropylmethoxy)-3-[(1R)-1-[3,6-dimethyl-2-(2-methylindazol-5-yl)-4-oxo-chromen-8-yl]ethoxy]pyridine-2-carboxamide] |
| < 500 | Cc1cc([C@@H](C)Oc2ccc(Cl)nc2C(N)=O)c2oc(-c3ccc4nn(CCO)cc4c3)c(C)c(=O)c2c1 [Example 129C, 6-Chloro-3-[(1R)-1-[2-[2-(2-hydroxyethyl)indazol-5-yl]-3,6-dimethyl-4-oxo-chromen-8-yl]ethoxy]pyridine-2-carboxamide] |
| < 500 | Cc1cc([C@@H](C)Oc2ccc(Cl)nc2S(N)(=O)=O)c2oc(C3(CCO)CC3)c(C)c(=O)c2c1 [Example 127C, 6-Chloro-3-[(1R)-1-[2-[1-(2-hydroxyethyl)cyclopropyl]-3,6-dimethyl-4-oxo-chromen-8-yl]ethoxy]pyridine-2-sulfonamide] |
| < 500 | Cc1cc([C@@H](C)Oc2ccc(Cl)nc2C(N)=O)c2oc(-c3ccc4nn(C)c(F)c4c3)c(C)c(=O)c2c1 [Example 48C, 6-Chloro-3-[(1R)-1-[2-(3-fluoro-2-methyl-indazol-5-yl)-3,6-dimethyl-4-oxo-chromen-8-yl]ethoxy]pyridine-2-carboxamide] |
| < 500 | Cc1cc([C@@H](C)Oc2ccc(Cl)nc2C(N)=O)c2oc(-c3ccc4c(c3)CCN(C)C4)c(C)c(=O)c2c1 [Example 71A, 6-Chloro-3-[(1R)-1-[3,6-dimethyl-2-(2-methyl-3,4-dihydro-1H-isoquinolin-6-yl)-4-oxo-chromen-8-yl]ethoxy]pyridine-2-carboxamide] |
| < 500 | Cc1cc([C@@H](C)Oc2ccc(Cl)nc2C(N)=O)c2oc(-c3cnn(C)c3)c(C)c(=O)c2c1 [Example 22A, 6-Chloro-3-[(1R)-1-[3,6-dimethyl-2-(1-methylpyrazol-4-yl)-4-oxo-chromen-8-yl]ethoxy]pyridine-2-carboxamide] |
| < 500 | Cc1cc([C@@H](C)Oc2ccc(Cl)nc2S(N)(=O)=O)c2oc(-c3cnoc3)c(C)c(=O)c2c1 [Example 12C, 6-Chloro-3-[(1R)-1-(2-isoxazol-4-yl-3,6-dimethyl-4-oxo-chromen-8-yl)ethoxy]pyridine-2-sulfonamide] |
| < 500 | Cc1cc([C@@H](C)Oc2ccc(Cl)nc2C(N)=O)c2oc(-c3ccc4c(c3)C(=O)N(C)C4)c(C)c(=O)c2c1 [Example 15B, 6-Chloro-3-[(1R)-1-[3,6-dimethyl-2-(2-methyl-3-oxo-isoindolin-5-yl)-4-oxo-chromen-8-yl]ethoxy]pyridine-2-carboxamide] |
| < 500 | Cc1cc([C@@H](C)Oc2ccc(Cl)nc2S(N)(=O)=O)c2oc(C3COC3)c(C)c(=O)c2c1 [Example 114C, 6-Chloro-3-[(1R)-1-[3,6-dimethyl-2-(oxetan-3-yl)-4-oxo-chromen-8-yl]ethoxy]pyridine-2-sulfonamide] |
